Among the test systems are A549 NSCLC; COLO 205 colon; HCC-2998 colon; KM12 colon; MDA-MB-435; NCI-H226 lung; NCI-H522 lung; RPMI-8226 leukemia; HL-60(TB) leukemia; UACC-62 melanoma.
Common to all, as to assay: DTP human tumour cell line panel, 48 h

Values joined by “and” are separate entries in the source; they are usually repeats but may differ in a detail not shown here. Equal values may be shown once.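 Following 48 hours of exposure in 96-well plates, responses at five concentrations were used to interpolate endpoints linearly. The concentration for full growth arrest is given as TGI.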

Experimental findings from PubChem BioAssay (NCI) are described below.

Regarding `CC1=NNC(N)=N/C1=C/C(Sc1ccc(Cl)cc1)c1cccs1` (centres undefined), the TGI with A549 NSCLC is 38.8 µM; in the assay with COLO 205 colon, 46.2 µM; with HCC-2998 colon, 26.9 µM; in the assay with KM12 colon, 23.1 µM; in the assay with MDA-MB-435, 55.3 µM; in the assay with NCI-H226 lung, 32.6 µM. Besides, the figures for the TGI in the assay on NCI-H522 lung and in the assay with RPMI-8226 leukemia were 18.2 µM and 64.3 µM, respectively.
With `Cc1ccc2c(c1)c(=O)c1c(NCCN(C)C)ccc3nnn2c31`, the TGI with A549 NSCLC was 13.6 µM; with COLO 205 colon, 9.72 µM; with HCC-2998 colon, 17 µM; in the assay on HL-60(TB) leukemia it was 8.58 µM; in the assay on KM12 colon, 11.7 µM; in the assay on NCI-H226 lung, 10.3 µM. Besides, the TGI with NCI-H522 lung was 17.6 µM; with RPMI-8226 leukemia, 7.63 µM; in the assay on UACC-62 melanoma it was 20.5 µM.
As for `c1ccc(C2=NN3CN(N2)c2ccccc2OCCCOc2ccccc23)cc1`, the TGI in the assay on A549 NSCLC, in the assay on COLO 205 colon, in the assay on HL-60(TB) leukemia, with KM12 colon, with NCI-H226 lung and with NCI-H522 lung was > 100 µM each time. For the same molecule, the TGI in the assay with RPMI-8226 leukemia and in the assay with UACC-62 melanoma was > 100 µM each time.
Take `O=C1NC(=O)/C(=C\c2ccncc2)N1`: the TGI in the assay on A549 NSCLC, in the assay on COLO 205 colon, in the assay with HCC-2998 colon, with KM12 colon, with MDA-MB-435 and in the assay on NCI-H226 lung was > 100 µM throughout.
With `O=C1c2cc(Cl)ccc2-n2c(noc2=O)C2CSCN12` (centres undefined), the TGI in the assay with A549 NSCLC, in the assay with COLO 205 colon, in the assay on HCC-2998 colon, in the assay with KM12 colon, with MDA-MB-435 and with NCI-H226 lung was > 100 µM throughout. Moreover, the TGI in the assay with NCI-H522 lung, in the assay with RPMI-8226 leukemia and in the assay with UACC-62 melanoma was > 100 µM throughout.
In the case of `CCCCN(CCCC)C(=NCc1ccccc1)NC#N`, the TGI with A549 NSCLC is > 100 µM; in the assay with COLO 205 colon, 33 µM; in the assay with HCC-2998 colon it was 49.7 µM; in the assay with HL-60(TB) leukemia, 35.7 µM; in the assay on KM12 colon, 83.6 µM; with NCI-H226 lung, 64.8 µM. Moreover, the TGI is 18.4 µM in the assay with NCI-H522 lung, 79.3 µM in the assay on RPMI-8226 leukemia and 33.6 µM in the assay on UACC-62 melanoma.
For the molecule `NC1=NS(=O)(=O)N=C(N)C1=Cc1ccc([N+](=O)[O-])o1`, the TGI with A549 NSCLC was > 100 µM; in the assay on COLO 205 colon, 29.1 µM; with HCC-2998 colon, 45.8 µM; in the assay with HL-60(TB) leukemia it was > 100 µM; with KM12 colon it was 34.5 µM; with NCI-H226 lung, 53.7 µM. Moreover, the values for the TGI in the assay with NCI-H522 lung, in the assay with RPMI-8226 leukemia and with UACC-62 melanoma were 31.5 µM, 70 µM and 30.2 µM, respectively.
As to `O=C1c2cc([N+](=O)[O-])ccc2NC2C(O)c3ccccc3N12` (centres undefined), the TGI with A549 NSCLC was > 100 µM; in the assay with COLO 205 colon, > 100 µM; with HCC-2998 colon it was > 100 µM; in the assay with KM12 colon, > 100 µM; with MDA-MB-435 it was > 100 µM; in the assay with NCI-H226 lung it was 82.9 µM. In addition, the TGI with NCI-H522 lung stood at 38.7 µM; in the assay on RPMI-8226 leukemia, 44.1 µM; with UACC-62 melanoma, 47.9 µM.
`Brc1ccc(N2C[N+](c3ccc(Br)cc3)=NC(c3ccccc3)=N2)cc1`: the TGI with A549 NSCLC was 33.6 µM and > 100 µM; with COLO 205 colon it was 33.7 µM and > 100 µM; in the assay with HCC-2998 colon, 28.7 µM and > 100 µM; in the assay on HL-60(TB) leukemia, 35.2 µM and > 100 µM; in the assay with KM12 colon, 28.1 µM and > 100 µM; in the assay with NCI-H226 lung, 44.4 µM and > 100 µM. The TGI with NCI-H522 lung was 36.4 µM and > 100 µM; in the assay on RPMI-8226 leukemia, 27.7 µM and > 100 µM; with UACC-62 melanoma, 28.2 µM and > 100 µM.
For the molecule `CCCCCCCCCCCCCCCCOCC(CC(F)(F)P(=O)(O)O)OC(C)=O` (centres undefined), the TGI with A549 NSCLC, in the assay on COLO 205 colon, in the assay with HCC-2998 colon, in the assay on KM12 colon, in the assay with MDA-MB-435 and with NCI-H226 lung was > 50 µM each time. Further, the TGI in the assay with NCI-H522 lung, with RPMI-8226 leukemia and with UACC-62 melanoma was > 50 µM throughout.
Regarding `Oc1ccc(-c2c3c(nc4c2CCc2ccc(Br)cc2-4)-c2cc(Br)ccc2CC3)cc1`, the TGI was 40.8 µM in the assay with A549 NSCLC; 32.4 µM in the assay on COLO 205 colon; 40.1 µM with HCC-2998 colon; 42.5 µM in the assay on KM12 colon; 45 µM in the assay on MDA-MB-435; 48 µM in the assay with NCI-H226 lung. The TGI stood at 42.7 µM with NCI-H522 lung, 77.3 µM in the assay with RPMI-8226 leukemia and 44.2 µM in the assay with UACC-62 melanoma.
Consider `Cc1cnc(Cl)nc1C(C#N)c1nc2ccccc2n1C` (centres undefined), for which the TGI is > 100 µM with A549 NSCLC; > 100 µM in the assay on COLO 205 colon; > 100 µM in the assay on KM12 colon; > 100 µM in the assay with MDA-MB-435; > 100 µM in the assay on NCI-H226 lung; 43.4 µM in the assay on NCI-H522 lung. The concentration for total growth inhibition (TGI) with RPMI-8226 leukemia was > 100 µM.
Regarding `Oc1c2cccc1Cc1cccc3c1OCCOCCOCCOCCOc1c(cccc1Cc1cccc(c1O)C3)C2`, the TGI was > 100 µM with A549 NSCLC; > 100 µM in the assay on COLO 205 colon; > 100 µM with HCC-2998 colon; > 100 µM with KM12 colon; > 100 µM with MDA-MB-435; 81 µM with NCI-H226 lung. The TGI in the assay on NCI-H522 lung, in the assay on RPMI-8226 leukemia and in the assay with UACC-62 melanoma was > 100 µM throughout.
With `O=C1CCC2(CCC(=O)NC2=O)C(=O)N1`, the TGI with A549 NSCLC, in the assay on COLO 205 colon, with HCC-2998 colon, in the assay with HL-60(TB) leukemia, in the assay on KM12 colon and with NCI-H226 lung was > 100 µM each time. Besides, the TGI with NCI-H522 lung and with RPMI-8226 leukemia was > 100 µM throughout.
Regarding `O=C(c1cccs1)N(C(=S)N1CCN(c2ccccc2)CC1)c1ccccc1`, the TGI with A549 NSCLC, with COLO 205 colon, in the assay with HL-60(TB) leukemia, in the assay with KM12 colon, in the assay with NCI-H226 lung and with NCI-H522 lung was > 100 µM in each case. The TGI with RPMI-8226 leukemia and in the assay on UACC-62 melanoma was > 100 µM in each case.
In the case of `[N-]=[N+]=NC1(c2ccccc2)C(=O)Nc2ccccc2C1=O` (centres undefined), the TGI is > 100 µM with A549 NSCLC; > 100 µM in the assay with COLO 205 colon; > 100 µM in the assay with HCC-2998 colon; > 100 µM in the assay with HL-60(TB) leukemia; > 100 µM with KM12 colon; 44.1 µM with MDA-MB-435. The TGI in the assay on RPMI-8226 leukemia was > 100 µM; in the assay on UACC-62 melanoma it was 76.3 µM.

As a reminder, the TGI is the concentration giving total growth inhibition. A higher TGI goes with less potent growth arrest.
